The record followed here is US10087142B2, “Azetidine derivatives useful as modulators of cortical cathecolaminergic neurotransmission” (Integrative Research Laboratories Sweden AB, priority 2015, dated 2018).

The test system of data set [1] is monoamine transmitters (NA, DA and 5-HT). In words: In vivo brain microdialysis of monoamines in striatum and frontal cortex. More on the design: species or system rat. The settings on record: Rattus norvegicus, sc, 50 μmol/kg s.c., rats. An excerpt: The microdialysis technique (See, for instance, Collin and Ungerstedt, Microdialysis: user's guide, Carnegie Medicin, Stockholm, 1988) is a well-established technique for measuring extracellular levels of neurotransmitters (Ungerstedt, J Int Med, 1991, 230; 365-73). The microdialysis technique was used to measure the effect of compounds disclosed herein upon the efflux of monoamine transmitters (NA, DA and 5-HT) in striatum and frontal cortex in conscious, freely moving rats.
Male Sprague-Dawley rats weighing 280-320 g were used throughout the experiments. Before the experiment the animals were housed in groups, maximum five animals in each cage, with free access to water and food. The animals were housed at least one week prior to surgery and use in the experiments.
A modified version (Waters et al., J Neural Transm Gen Sect, 1994, 98(1); 39-55) of the I-shaped probe (Santiago and Westerink, N-S Arch Pharmacol, 1990, 342; 407-14) with the AN69 polyacrylonitrile/sodium methyl sulfonate copolymer (HOSPAL; o.d/i.d. 310/220 μm: dialysis membrane (Gambro, Lund, Sweden) was used in the microdialysis experiments. In the dorsal striatum, probes with an exposed length of 3 mm of dialysis membrane were used and in the prefrontal cortex the corresponding length was 2.5 mm. The rats were operated under isoflurane inhalation anesthesia while mounted into a Kopf stereotaxic instrument. Coordinates were calculated relative to bregma; dorsal striatum AP+1.0, ML±2.6, DV 6.2; Pf cortex, AP 15+3.2, ML+1.2, DV −4.08°, according to Paxinos and Watson (New York, Academic Press, 1986; FIG. 8 and FIG. 14). The dialysis probe was positioned in a burr hole under stereotaxic guidance and cemented with phosphatine dental cement (DAB Dental).
The rats were housed individually in cages for 48 h before the dialysis experiments, allowing them to recover from surgery and minimizing the risk of drug interactions with the anesthetics during the following experiments. During this period the rats had free access to food and water.
On the day of the experiment the rats were connected to a micro-perfusion pump via a swivel and were replaced in the cage where they could move freely within its confinements. The perfusion medium was a Ringer's solution containing (in mmol/I): NaCl; 140, CaCl2; 1.2, KCl; 3.0, MgCl2; 1.0 (Moghaddam and Bunney. Neurochem., 1989, 53; 652-4). The pump was set to a perfusion speed of 2 μl/min and 40 μl sample volume were collected every 20 min.
The rats were perfused for at least 40 min before sampling began. Five fractions of each 20 min were collected and the last three were used for the establishment of the baseline. After collection of baseline fractions, the pharmacological challenge to the dialysis experiment started. Test compounds were administrated by injection (s.c.) in a volume of 5 ml/kg, with 0.9% NaCl (saline) as vehicle.
The analytical method were based on two chromatographic separations dedicated for amines or acids. Two chromatographic systems shared a common auto injector with a 10-port valve and two sample loops for simultaneous injection on the two systems.
The acids were separated by reversed phase chromatography while the amines were separated by reversed phase ion pairing chromatography preceded by a reverse phase separation in a column switching configuration. Three separation columns (Luna C18 (2), dp 3 μm, 2 mm i.d., Phenomenex) of different lengths were used. Electrochemical detection was accomplished on glassy carbon electrodes (MF-1000, Bioanalytical Systems, Inc.)
The aqueous mobile phase (0.6 ml/min) for the acid system contained citric acid (40 mM, dipotassium hydrogen phosphate 10 mM, methanol 8-11% (v/v) and EDTA 0.1 mM. Column length was 30 mm and detection potential relative to Ag/AgCl reference was 0.74V. […]

Setting [2] is: frontal cortex dialysate, read-out: 5-HT FC ± SEM, maximum effect compared to baseline.
Where [3] appears, read: frontal cortex dialysate, read-out: DA FC ± SEM, maximum effect compared to baseline.
The mark [4] stands for this setting: frontal cortex dialysate, read-out: NA FC ± SEM, maximum effect compared to baseline.
Setting [5] is: striatum dialysate, read-out: 5-HT Stri ± SEM, maximum effect compared to baseline.
[6] abbreviates: striatum dialysate, read-out: DA Stri ± SEM, maximum effect compared to baseline.

Structures are written as SMILES. Where a name gives a salt, the structure may show the parent alone. Read-outs that look alike come from different tables or passages of the source.

As usually defined, the melting point is the temperature, or range, at which the solid turns liquid. `Fc1cc(F)c(C(F)C2CNC2)c(F)c1.O=C(O)C(=O)O` (stereo not shown) (hydrate or solvate) displayed a melting point of 149.6 °C.
In the case of `CCCN1CC(C(F)c2cccc(F)c2F)C1.O=C(O)C(=O)O` (stereo not shown) (hydrate or solvate), the melting point is 137.4 °C.
`CCCN1CC(C(F)c2cc(F)cc(F)c2F)C1.O=C(O)C(=O)O` (stereo not shown) (hydrate or solvate) gave a melting point of 159 °C.
In turn, `CCN1CC(C(F)c2cc(F)c(F)c(F)c2)C1.O=C(O)C(=O)O` (stereo not shown) (hydrate or solvate) gave a melting point of 129.8 °C.
Still for that read-out and setting: the figure for `Fc1cc(F)c(F)c(C(F)C2CNC2)c1F.O=C(O)C(=O)O` (stereo not shown) (hydrate or solvate) is 181.6 °C; for `CCN1CC(C(F)c2c(F)c(F)cc(F)c2F)C1.O=C(O)C(=O)O` (stereo not shown) (hydrate or solvate) it is 145.9 °C.
In the case of `CCN1CC(C(F)c2cc(F)cc(F)c2)C1` (stereo not shown) [Example 19, 3-[(3,5-Difluorophenyl)(Fluoro)Methyl]-1-Ethylazetidine Oxalate Salt], the response vs control in vivo at 50 µmol/kg in data set [1] (setting [2]) was 212 ± 15%; in data set [1] (setting [3]), 399 ± 30%; in data set [1] (setting [4]) it was 354 ± 54%; in data set [1] (setting [5]) it was 170 ± 63%; in data set [1] (setting [6]), 144 ± 10%.
On to `CCCN1CC(C(F)c2cc(F)cc(F)c2)C1` (stereo not shown) [Example 20, 3-[(3,5-Difluorophenyl)(Fluoro)Methyl]-1-Propylazetidine Oxalate Salt], for which the response vs control in vivo at 50 µmol/kg stood at 171% in data set [1] (setting [2]); 362% in data set [1] (setting [3]); 264% in data set [1] (setting [4]); 145% in data set [1] (setting [5]); 111% in data set [1] (setting [6]).
Turning to `CCN1CC(C(F)c2cc(F)cc(F)c2F)C1` (stereo not shown) [Example 22, 1-Ethyl-3-[Fluoro(2,3,5-Trifluorophenyl)Methyl]Azetidine Oxalate Salt], the response vs control in vivo at 50 µmol/kg in data set [1] (setting [2]) was determined as 140%; in data set [1] (setting [3]) it was 654 ± 212%; in data set [1] (setting [6]), 158%.
